The Kinase Knowledgebase extract (Sharma et al. 2016)

How the values were obtained:
PIK3CA (human) [1] = target: PIK3CA (human) (UniProt P42336); assay: Assessment of PIK3CA Kinase Activity in NZB5 Cells
PIK3CA (human) [2] = target: PIK3CA (human) (UniProt P42336); assay: Assessment of PIK3CA Kinase Activity in NZOV9 Cells

PIK3CA (human), sequence (P42336 whole entry, looked up): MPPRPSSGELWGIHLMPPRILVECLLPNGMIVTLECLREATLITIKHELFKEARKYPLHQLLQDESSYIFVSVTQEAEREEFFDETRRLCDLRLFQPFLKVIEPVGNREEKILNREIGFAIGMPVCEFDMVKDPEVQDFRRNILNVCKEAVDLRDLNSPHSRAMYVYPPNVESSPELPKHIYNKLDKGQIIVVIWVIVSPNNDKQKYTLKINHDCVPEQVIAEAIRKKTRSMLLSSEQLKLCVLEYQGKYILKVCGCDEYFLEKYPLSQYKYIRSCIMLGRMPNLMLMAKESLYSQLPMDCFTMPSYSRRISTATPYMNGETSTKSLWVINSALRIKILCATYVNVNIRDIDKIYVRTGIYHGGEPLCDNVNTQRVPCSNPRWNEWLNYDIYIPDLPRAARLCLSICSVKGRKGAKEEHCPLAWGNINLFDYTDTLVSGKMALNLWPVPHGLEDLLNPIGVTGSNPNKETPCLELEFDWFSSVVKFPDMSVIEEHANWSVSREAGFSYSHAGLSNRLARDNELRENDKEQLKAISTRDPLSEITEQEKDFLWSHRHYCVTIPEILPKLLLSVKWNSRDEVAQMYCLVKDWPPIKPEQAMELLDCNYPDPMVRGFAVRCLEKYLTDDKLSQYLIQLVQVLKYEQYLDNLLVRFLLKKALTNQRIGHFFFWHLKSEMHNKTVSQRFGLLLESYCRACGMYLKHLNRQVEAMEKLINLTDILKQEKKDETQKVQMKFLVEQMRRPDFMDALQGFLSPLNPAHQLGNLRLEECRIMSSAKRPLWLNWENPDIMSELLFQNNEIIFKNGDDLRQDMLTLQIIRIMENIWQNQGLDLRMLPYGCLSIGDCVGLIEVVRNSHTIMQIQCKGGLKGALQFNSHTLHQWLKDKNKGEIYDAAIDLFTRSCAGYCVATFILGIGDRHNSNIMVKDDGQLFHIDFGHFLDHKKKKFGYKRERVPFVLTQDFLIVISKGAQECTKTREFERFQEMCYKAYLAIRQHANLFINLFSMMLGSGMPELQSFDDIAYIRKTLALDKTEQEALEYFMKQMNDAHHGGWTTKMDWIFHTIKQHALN

IC50 (PIK3CA (human) [1]) [µM] | IC50 (PIK3CA (human) [2]) [µM] | SMILES
> 20 |  | Cc1ccc(F)cc1S(=O)(=O)N(C)N=Cc1cnn2ccc(C#N)cc12
> 20 |  | Cc1ccccc1S(=O)(=O)N(C)N=Cc1cnn2ccc(C#N)cc12
> 20 | > 20 | Cc1ccc(C(=O)O)cc1S(=O)(=O)N(C)N=Cc1cnn2ccc(C#N)cc12
> 20 | > 20 | Cc1cc([N+](=O)[O-])ccc1S(=O)(=O)N(C)N=Cc1cnn2ccc(C#N)cc12
> 20 | > 20 | CC(=O)Nc1ccc(C)c(S(=O)(=O)N(C)N=Cc2cnn3ccc(C#N)cc23)c1

The remaining lines, values behind:

SMILES | IC50 (PIK3CA (human) [1]) [µM] | IC50 (PIK3CA (human) [2]) [µM]
Cc1c([N+](=O)[O-])cccc1S(=O)(=O)N(C)N=Cc1cnn2ccc(C#N)cc12 | > 20 | > 20
Cc1ccc([N+](=O)[O-])cc1C(=O)N(C)N=Cc1cnn2ccc(C#N)cc12 | > 20 | > 20
CN(C)c1ccc([N+](=O)[O-])cc1S(=O)(=O)N(C)N=Cc1cnn2ccc(C#N)cc12 |  | 0.1
